The subject of test [1] is Receptor-type tyrosine-protein kinase FLT3 (Homo sapiens), P36888 [UNDEFINED MUTATION]. The test can be described thus: (§1) Selectivity interaction (KinomeScan (DiscoverX)) EUB0000138c FLT3. Conditions: at 100 nM.
Test [2] concerns T1, Receptor-type tyrosine-protein kinase FLT3 (Homo sapiens), P36888 [D835Y].
T1 sequence (whole entry): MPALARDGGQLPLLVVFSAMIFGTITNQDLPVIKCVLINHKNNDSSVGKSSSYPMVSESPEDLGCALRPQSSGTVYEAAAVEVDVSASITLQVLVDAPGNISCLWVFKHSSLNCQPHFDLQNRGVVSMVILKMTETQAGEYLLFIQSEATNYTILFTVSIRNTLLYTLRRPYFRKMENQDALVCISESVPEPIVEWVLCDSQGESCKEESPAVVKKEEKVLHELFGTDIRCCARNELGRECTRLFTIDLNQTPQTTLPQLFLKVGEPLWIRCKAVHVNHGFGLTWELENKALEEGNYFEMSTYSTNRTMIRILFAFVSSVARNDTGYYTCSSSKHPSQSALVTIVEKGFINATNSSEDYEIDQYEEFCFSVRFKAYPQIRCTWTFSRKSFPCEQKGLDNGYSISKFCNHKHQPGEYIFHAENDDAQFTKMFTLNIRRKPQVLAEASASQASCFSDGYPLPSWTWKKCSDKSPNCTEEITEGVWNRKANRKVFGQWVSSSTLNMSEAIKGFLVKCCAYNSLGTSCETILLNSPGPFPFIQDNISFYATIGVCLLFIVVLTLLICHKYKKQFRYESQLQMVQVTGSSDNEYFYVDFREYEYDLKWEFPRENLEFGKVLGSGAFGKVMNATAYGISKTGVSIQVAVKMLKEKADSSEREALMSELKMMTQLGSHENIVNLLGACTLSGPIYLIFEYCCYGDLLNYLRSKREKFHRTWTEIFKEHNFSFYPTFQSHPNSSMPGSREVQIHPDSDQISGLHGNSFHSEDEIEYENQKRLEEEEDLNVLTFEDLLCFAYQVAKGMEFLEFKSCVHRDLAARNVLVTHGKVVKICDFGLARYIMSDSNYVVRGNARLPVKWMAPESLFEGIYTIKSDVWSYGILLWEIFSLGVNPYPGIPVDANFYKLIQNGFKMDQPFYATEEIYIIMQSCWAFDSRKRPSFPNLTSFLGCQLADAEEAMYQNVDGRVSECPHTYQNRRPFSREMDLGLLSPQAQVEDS
Described as §1. The settings on record: at 100 nM.

Test [3] relates to Receptor-type tyrosine-protein kinase FLT3 (Homo sapiens), P36888 [D835H]. The test is described as §1. Conditions: at 100 nM.
Test [4] addresses Tyrosine-protein kinase ABL1 (Homo sapiens, UniProt P00519). Conditions: at 1 µM.
Test [5] concerns the target Proto-oncogene tyrosine-protein kinase Src (Homo sapiens, UniProt P12931). Conditions: at 1 µM.
The target of test [6] is T2, Dual specificity mitogen-activated protein kinase kinase 5 (Homo sapiens) (UniProt Q13163).
T2 sequence (whole entry): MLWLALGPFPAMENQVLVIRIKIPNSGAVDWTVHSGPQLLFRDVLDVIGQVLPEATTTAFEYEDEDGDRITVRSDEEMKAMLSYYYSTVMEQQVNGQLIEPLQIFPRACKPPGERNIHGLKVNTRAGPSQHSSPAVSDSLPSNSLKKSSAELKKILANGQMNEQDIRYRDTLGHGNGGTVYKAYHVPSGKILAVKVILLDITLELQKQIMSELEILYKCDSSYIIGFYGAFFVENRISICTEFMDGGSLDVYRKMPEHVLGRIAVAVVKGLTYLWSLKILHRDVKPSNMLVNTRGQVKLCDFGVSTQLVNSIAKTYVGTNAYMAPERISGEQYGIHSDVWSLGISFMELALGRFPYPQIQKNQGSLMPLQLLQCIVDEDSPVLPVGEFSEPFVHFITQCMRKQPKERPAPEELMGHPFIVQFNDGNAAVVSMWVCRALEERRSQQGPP
The test can be described thus: Selectivity interaction (KinomeScan (DiscoverX)) EUB0000698a MAP2K5. Conditions: at 10 µM.

For test [7], the target named is Serine/threonine-protein kinase Chk2 (Homo sapiens, UniProt O96017). Briefly: Selectivity interaction (KinomeScan (DiscoverX)) EUB0000702a CHEK2. The settings on record: at 1 µM.
The target of test [8] is T3, Gamma-aminobutyric acid receptor subunit alpha-1 (Homo sapiens, UniProt P14867).
T3 sequence (P14867 whole entry): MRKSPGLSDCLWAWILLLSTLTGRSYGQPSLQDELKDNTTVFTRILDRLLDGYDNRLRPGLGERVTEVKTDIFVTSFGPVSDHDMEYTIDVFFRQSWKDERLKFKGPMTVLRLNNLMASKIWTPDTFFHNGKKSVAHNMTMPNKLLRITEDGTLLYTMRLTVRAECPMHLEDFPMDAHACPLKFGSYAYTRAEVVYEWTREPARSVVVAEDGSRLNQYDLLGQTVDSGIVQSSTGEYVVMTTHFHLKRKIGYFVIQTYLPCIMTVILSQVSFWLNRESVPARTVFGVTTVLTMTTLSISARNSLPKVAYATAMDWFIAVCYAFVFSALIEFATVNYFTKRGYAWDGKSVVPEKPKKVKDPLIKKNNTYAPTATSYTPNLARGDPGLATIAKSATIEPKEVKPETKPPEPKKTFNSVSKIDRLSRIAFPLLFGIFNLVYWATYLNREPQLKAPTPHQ
Briefly: Selectivity interaction (GPCR panel (PDSP screen)) EUB0000702a GABRA1.

In test [9] the target is Mitogen-activated protein kinase kinase kinase 1 (Homo sapiens) (UniProt Q13233). Briefly: Selectivity interaction (KinomeScan (DiscoverX)) EUB0000702a MAP3K1. The settings on record: at 1 µM.
Test [10] has as its target Dual specificity protein kinase CLK1 (Homo sapiens, UniProt P49759). Briefly: Selectivity interaction (KinomeScan (DiscoverX)) EUB0000702a CLK1. The settings on record: at 1 µM.
Test [11] addresses Serine/threonine-protein kinase PLK2 (Homo sapiens) (UniProt Q9NYY3). Briefly: Selectivity interaction (KinomeScan (DiscoverX)) EUB0000169b PLK2. Conditions: at 1 µM.

The structures appear in SMILES notation. pKi: −log10 of the molar value. Bounds are passed on as bounds.

Sequence of Serine/threonine-protein kinase Chk2 (O96017 whole entry): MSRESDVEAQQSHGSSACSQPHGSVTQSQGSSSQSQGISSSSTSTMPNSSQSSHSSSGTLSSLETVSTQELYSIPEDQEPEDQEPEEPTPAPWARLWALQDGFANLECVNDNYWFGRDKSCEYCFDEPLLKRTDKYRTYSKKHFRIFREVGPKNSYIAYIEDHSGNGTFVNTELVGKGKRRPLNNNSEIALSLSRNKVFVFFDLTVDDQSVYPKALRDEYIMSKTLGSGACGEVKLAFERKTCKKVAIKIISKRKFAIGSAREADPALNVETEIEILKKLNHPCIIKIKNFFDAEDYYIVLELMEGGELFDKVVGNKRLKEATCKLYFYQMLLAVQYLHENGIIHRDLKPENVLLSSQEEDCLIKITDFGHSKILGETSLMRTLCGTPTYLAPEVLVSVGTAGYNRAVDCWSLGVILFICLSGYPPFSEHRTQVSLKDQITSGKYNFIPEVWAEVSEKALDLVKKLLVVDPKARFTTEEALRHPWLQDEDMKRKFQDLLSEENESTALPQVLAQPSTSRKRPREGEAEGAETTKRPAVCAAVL
Sequence of Tyrosine-protein kinase ABL1 (P00519 whole entry): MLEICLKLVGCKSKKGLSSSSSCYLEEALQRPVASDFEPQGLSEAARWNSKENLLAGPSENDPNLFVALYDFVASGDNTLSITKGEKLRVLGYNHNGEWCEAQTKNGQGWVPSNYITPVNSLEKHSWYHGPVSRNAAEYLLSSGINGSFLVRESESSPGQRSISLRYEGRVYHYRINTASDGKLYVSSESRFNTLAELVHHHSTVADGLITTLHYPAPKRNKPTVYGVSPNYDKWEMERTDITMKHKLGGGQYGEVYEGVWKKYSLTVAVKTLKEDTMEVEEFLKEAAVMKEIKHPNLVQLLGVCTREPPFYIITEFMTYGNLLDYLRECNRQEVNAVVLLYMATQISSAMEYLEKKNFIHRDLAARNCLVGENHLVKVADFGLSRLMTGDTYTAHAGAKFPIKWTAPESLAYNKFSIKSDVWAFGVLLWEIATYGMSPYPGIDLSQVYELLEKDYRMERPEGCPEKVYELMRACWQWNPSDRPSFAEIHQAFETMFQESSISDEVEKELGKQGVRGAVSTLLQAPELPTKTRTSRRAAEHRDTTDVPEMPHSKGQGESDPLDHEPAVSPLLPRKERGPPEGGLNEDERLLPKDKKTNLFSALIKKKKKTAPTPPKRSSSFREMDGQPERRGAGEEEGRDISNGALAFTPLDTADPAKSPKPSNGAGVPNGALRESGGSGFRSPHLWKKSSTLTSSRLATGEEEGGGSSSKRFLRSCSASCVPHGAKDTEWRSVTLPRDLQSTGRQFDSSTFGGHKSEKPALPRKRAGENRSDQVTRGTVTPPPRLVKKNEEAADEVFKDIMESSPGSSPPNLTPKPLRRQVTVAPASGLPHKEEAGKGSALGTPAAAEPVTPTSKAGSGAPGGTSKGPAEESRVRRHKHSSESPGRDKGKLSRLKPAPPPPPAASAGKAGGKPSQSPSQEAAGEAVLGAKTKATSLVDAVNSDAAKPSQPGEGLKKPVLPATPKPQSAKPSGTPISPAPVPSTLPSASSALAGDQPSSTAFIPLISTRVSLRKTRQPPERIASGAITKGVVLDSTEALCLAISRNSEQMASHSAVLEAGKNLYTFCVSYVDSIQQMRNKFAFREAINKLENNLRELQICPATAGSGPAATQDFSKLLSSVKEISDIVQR
Sequence of Serine/threonine-protein kinase PLK2 (Homo sapiens) (Q9NYY3 whole entry, looked up): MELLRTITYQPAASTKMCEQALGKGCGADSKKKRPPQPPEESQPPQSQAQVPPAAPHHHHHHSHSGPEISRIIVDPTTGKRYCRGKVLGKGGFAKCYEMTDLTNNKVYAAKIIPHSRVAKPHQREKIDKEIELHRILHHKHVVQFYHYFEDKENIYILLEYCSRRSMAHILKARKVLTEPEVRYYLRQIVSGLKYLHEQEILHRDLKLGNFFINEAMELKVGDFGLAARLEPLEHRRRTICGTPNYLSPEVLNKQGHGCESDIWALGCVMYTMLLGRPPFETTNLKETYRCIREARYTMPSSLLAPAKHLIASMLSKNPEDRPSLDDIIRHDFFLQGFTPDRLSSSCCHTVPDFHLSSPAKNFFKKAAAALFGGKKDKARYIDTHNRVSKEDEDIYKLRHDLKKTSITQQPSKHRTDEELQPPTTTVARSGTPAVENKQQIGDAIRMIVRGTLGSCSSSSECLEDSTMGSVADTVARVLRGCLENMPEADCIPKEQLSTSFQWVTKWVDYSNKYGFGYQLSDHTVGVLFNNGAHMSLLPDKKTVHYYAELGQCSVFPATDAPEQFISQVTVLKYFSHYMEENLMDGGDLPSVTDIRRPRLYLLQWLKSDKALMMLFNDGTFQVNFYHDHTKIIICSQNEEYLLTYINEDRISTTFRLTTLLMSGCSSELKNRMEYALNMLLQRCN
Sequence of Dual specificity protein kinase CLK1 (P49759 whole entry, looked up): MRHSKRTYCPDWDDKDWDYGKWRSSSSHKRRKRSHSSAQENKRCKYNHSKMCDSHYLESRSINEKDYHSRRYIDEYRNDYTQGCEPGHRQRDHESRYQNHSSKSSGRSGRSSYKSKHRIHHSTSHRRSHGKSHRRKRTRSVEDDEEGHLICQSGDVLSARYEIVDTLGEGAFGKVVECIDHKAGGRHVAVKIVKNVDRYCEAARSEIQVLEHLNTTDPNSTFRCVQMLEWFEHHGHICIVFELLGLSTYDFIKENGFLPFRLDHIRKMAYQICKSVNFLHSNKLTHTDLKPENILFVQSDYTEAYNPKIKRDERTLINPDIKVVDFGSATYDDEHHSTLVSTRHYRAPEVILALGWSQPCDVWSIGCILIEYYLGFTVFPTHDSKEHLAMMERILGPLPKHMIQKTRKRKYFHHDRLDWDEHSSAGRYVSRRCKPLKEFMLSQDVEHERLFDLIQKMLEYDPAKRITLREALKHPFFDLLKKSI
Sequence of Proto-oncogene tyrosine-protein kinase Src (P12931 whole entry, looked up): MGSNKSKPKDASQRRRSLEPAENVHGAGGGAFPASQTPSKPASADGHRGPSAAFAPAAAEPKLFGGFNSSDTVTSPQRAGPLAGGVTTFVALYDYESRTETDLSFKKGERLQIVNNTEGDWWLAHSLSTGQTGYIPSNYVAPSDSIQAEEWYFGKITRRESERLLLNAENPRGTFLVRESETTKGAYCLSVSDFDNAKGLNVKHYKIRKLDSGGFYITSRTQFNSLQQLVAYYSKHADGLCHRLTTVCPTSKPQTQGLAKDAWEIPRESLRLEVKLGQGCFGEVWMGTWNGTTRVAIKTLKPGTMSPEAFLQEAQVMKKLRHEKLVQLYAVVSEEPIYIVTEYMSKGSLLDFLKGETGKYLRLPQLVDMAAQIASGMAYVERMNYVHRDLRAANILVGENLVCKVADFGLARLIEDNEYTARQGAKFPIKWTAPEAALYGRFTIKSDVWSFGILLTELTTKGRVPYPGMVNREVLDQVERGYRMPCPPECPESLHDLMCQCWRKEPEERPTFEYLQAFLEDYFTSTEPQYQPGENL
Sequence of Mitogen-activated protein kinase kinase kinase 1 (Homo sapiens) (Q13233 whole entry): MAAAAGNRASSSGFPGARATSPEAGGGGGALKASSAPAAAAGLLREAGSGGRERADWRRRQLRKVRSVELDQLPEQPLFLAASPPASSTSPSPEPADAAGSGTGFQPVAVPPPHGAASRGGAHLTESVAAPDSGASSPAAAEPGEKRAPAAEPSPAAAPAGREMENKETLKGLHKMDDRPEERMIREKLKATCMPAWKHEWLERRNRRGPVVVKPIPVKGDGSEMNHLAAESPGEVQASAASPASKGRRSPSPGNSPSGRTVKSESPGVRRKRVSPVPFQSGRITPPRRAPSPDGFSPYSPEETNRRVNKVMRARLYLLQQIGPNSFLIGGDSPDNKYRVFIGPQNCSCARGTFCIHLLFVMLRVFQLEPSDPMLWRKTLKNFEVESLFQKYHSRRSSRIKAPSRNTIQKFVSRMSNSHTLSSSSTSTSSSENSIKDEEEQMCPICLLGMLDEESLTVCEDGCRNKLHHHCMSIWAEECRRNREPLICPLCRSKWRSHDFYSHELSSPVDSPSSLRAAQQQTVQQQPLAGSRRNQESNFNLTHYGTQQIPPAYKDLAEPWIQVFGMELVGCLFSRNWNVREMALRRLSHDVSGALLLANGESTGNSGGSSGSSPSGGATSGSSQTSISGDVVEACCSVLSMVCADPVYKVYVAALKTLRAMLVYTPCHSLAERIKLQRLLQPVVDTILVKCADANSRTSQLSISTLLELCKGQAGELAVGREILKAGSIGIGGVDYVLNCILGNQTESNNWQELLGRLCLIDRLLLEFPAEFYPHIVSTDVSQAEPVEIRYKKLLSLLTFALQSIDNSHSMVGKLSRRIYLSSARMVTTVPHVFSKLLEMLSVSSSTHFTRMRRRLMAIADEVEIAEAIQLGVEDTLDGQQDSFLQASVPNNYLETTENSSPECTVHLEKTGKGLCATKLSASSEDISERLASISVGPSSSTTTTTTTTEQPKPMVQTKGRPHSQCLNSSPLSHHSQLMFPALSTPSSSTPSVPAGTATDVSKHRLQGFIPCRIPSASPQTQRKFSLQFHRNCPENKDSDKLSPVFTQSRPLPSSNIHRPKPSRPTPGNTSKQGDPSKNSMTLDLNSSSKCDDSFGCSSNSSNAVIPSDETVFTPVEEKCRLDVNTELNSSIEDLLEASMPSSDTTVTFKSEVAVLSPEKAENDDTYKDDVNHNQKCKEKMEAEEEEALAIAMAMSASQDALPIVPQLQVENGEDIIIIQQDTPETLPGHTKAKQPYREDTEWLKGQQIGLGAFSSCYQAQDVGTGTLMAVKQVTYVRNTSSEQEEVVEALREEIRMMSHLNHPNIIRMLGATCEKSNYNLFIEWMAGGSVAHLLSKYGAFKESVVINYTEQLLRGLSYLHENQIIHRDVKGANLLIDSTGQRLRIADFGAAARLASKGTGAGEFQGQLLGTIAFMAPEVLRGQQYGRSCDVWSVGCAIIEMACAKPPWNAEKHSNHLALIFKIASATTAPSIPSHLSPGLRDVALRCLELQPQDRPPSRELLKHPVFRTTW

With `CNC(=O)c1ccc(Nc2ncc(C(F)(F)F)c(NCc3nccnc3N(C)S(C)(=O)=O)n2)cc1` [DEFACTINIB], the % of control in test [1] turned out to be 9%; in [2], 5.9%; in [3], 99.8%.
With `CCOc1cn(-c2ccc(F)cc2C)nc1C(=O)Nc1ccc(Oc2ccnc3cc(OC)c(OC)cc23)c(F)c1`, the % of control in [4] and in [5] was less than 10% in each case.
In test [6], `COc1cc2ncn(-c3cc(OCc4ccccc4C(F)(F)F)c(C(N)=O)s3)c2cc1OC` [GW843682X] showed a % of control of 0.5%.
In the case of `CN(c1ccnc(CNc2nc(Nc3ccc4c(c3)CC(=O)N4)ncc2C(F)(F)F)n1)S(C)(=O)=O` [PF-00911705], the % of control in test [7] was determined as 0%; in test [9] it was 0%; in test [10], 4.4%. In addition, the pKi (in general, −log10 of the Ki, conventionally taken in molar units) in test [8] was 5.83.
`CC[C@@H]1C(=O)N(C)c2cnc(Nc3ccc(C(=O)NC4CCN(C)CC4)cc3OC)nc2N1C1CCCC1` came in with a % of control in [11] of 1.2%.

The record behind these values is ChEMBL document CHEMBL5212743, “Selectivity Literature for EUbOPEN Chemogenomics Library wave 3” (2023).
